Laboratory results from patent US6576811B1, “Transgenic rat with human normal type c-Ha-ras gene” (National Cancer Center Research Institute, priority 1998, dated 2003).
“And” between values parts separate entries of the source, which are not always exact repeats. Equal entries are not always repeated. Marks after values point to notes of the source that are not given here.

How the values were obtained:
[1] = tested on: wild type rats (non Tg rats); assay: MNU-induced mammary carcinogenesis in wild type rats (102 line); format: in vivo, rat; conditions: strain 102, 'MNU Treatment' cell '—' (probably wild rats), week 18, 13 rats
Protocol: (§1) MNU, at a dose of 50 mg/kg, was intravenously injected into Hras128 and wild type rats, at 50 days old, to perform histopathological examination of the incidence of mammary tumor and to screen the presence or absence of any point mutation of the transgene and endogenous c-Ha-ras gene.
(§2) Mammary tumor became palpable in the Hras128 strain rats, 5 weeks after MNU administration, and then multiple adenocarcinoma developed in all (100%) of the mammary glands of all the transgenic rats at week 8, but that in the wild type rats only 29.2% even at week 8 (see Table 1 and FIG. 2). In 102-strain rats, multiple adenocarcinoma was observed 16 weeks after MNU administration.

[2] = tested on: wild type rats (non Tg rats); assay: MNU-induced mammary carcinogenesis in wild type rats (128 line); format: in vivo, rat; conditions: strain 128, 'MNU Treatment' cell '—' (wild type rats per text), week 8, 24 rats
Protocol: as §1, §2

[3] = tested on: endogenous Ha-ras gene (rat); assay: Mutation analysis (PCR-SSCP) of the endogenous Ha-ras gene in carcinogen-induced tumors
From the text: Single-stranded DNA confirmation polymorphism (SSCP) analysis is able to be performed according to the followings; T. Sekiya. Protein, Nucleic Acid, Enzyme, vol. 41, No. 5, 539, 1996.
Possible mutations in exons 1 to 4 of the human Ha-ras proto-oncogene and exons 1 and 2 of the endogenous gene were examined by PCR-SSCP analysis. Using human or rat specific primers, only two bands appeared on the gals. With common primers (cHras21F and cHras21R) for Ha-ras exon 2 of both man and rats, four bands were detected. Human or rat specific bands were identified by signals from normal DNA of the transgenic and non-transgenic rats. DNA from T24 having a mutation in human Ha-ras of codon 12, GGC to GTC and that from pSK2 having a mutation in the codon 61, CAG to CTG, gave clearly mobility shifted bands in the assays (FIG. 4). However, a GGC to GAC mutation of the transgene enriched by PCR after RFLP analysis as described below, which was frequently observed in tumors induced by MNU in human Ha-ras proto-oncogene transgenic mice, could not be detected by SSCP -PCR analysis. In 44 tumors from Hras128 transgenic rats treated with MNU, mutations were not detected in exons 1 to 4 of the introduced human and endogenous c-Ha-ras genes under any of four SSCP conditions (at 4 or 20° C., with or without 5% glycerol) (Table 1). In contrast, a relatively high frequency (6 of 21 tumors of non-transgenic rats (28.6%) of GGA to GAA mutations in codon 12 of the endogenous Ha-ras gene was detected in mammary carcinomas of non-transgenic using PCR-SSCP analysis followed by direct sequencing (Table 1).

Hras102 rats = assay: MNU-induced mammary carcinogenesis in 102-strain transgenic rats; format: in vivo, rat
Protocol: as §1, §2

[4] = tested on: human c-Ha-ras proto-oncogene (transgene); assay: Mutation analysis (RFLP, PCR-SSCP) of the transgene in carcinogen-induced tumors
From the text: Single-stranded DNA confirmation polymorphism (SSCP) analysis is able to be performed according to the followings; T. Sekiya. Protein, Nucleic Acid, Enzyme, vol.
Possible mutations in exons 1 to 4 of the human Ha-ras proto-oncogene and exons 1 and 2 of the endogenous gene were examined by PCR-SSCP analysis.
RFLP analysis is able to perform according to the followings; Nagase, et al., Protein, Nucleic Acid, Enzyme, vol.

Hras128 rats [5] = assay: MNU-induced mammary carcinogenesis in Hras128 transgenic rats; format: in vivo, rat
Protocol: as §1, §2

[6] = tested on: wild type rats (non Tg rats); assay: PhIP-induced mammary carcinomas in wild type rats; format: in vivo, rat; conditions: 4 rats
From the text: (§3) Well established mammary carcinogens, such as 7,14-dimethylbenz[a]anthracene (DMBA) and 2-amino-1-methyl-6-phenylimidazo[4,5-]pyridlne (PhIP) were given to the Hras128 rats in the same manner as in previous reports.

Hras128 rats [7] = assay: PhIP-induced mammary carcinomas in Hras128 rats; format: in vivo, rat
From the text: as §3

Hras128 rats [8] = assay: Effects of d-limonene on MNU-induced mammary carcinogenesis in Hras128 transgenic rats; format: in vivo, rat; conditions: 5% d-limonene, 9 rats
[9] = MNU-induced mammary tumors, Hras128, 44 tumors examined, SSCP
[10] = strain 102, MNU performed, week 18 after injection, 23 rats
[11] = MNU-induced mammary tumors, Hras128, 44 tumors examined
[12] = strain 128, MNU performed, 50 mg/kg i.v., week 8 after injection, 22 rats
[13] = PhIP-induced mammary carcinomas, row printed 'Wild' (Hras128 per text), 20 tumors examined
[14] = Hras128, mammary carcinomas, 6 rats
[15] = PhIP-induced mammary carcinomas, row printed 'Wild' (Hras128 per text), 20 tumors examined, RFLP

SMILES: CN(N=O)C(N)=O [MNU, N-methyl-N-nitrosourea]
- No. of tumor-bearing rats [1]: 10
- No. of tumor-bearing rats (%) [1]: (76.9) %
- No. of tumor/rat [1]: 3.00 ± 2.86
- No. of tumor-bearing rats [2]: 7
- No. of tumor/rat [2]: 0.46 ± 0.93
- Tumors with endogenous (rat) exon 1 mutation, number [3, 9]: 0
- Tumors with endogenous (rat) exon 2 mutation, number [3, 9]: 0
- Tumors with endogenous (rat) exon 2 mutation, number ([3]; MNU-induced mammary tumors, Wild, 21 tumors examined, SSCP): 0
- Multiple adenocarcinoma observed, time after MNU administration (Hras102 rats; 102-strain rats, MNU 50 mg/kg i.v.): 16 weeks
- No. of tumor-bearing rats (Hras102 rats; [10]): 20
- No. of tumor-bearing rats (%) (Hras102 rats; [10]): (87.0) %
- No. of tumor/rat (Hras102 rats; [10]): 5.83 ± 5.31
- Tumors with transgene exon 2 (codon 61) mutation, number [4, 11]: 0
- Tumors with transgene exon 3 mutation, number [4, 11]: 0
- Tumors with transgene exon 4 mutation, number [4, 11]: 0
- Mammary tumor became palpable, time after MNU administration (Hras128 rats [5]; Hras128 rats, MNU 50 mg/kg i.v. at 50 days old): 5 weeks
- Sensitivity of Tg rats to MNU-induced mammary carcinogenesis (Hras128 rats [5]; Tg rats vs wild type): very sensitive
- No. of tumor-bearing rats (Hras128 rats [5]; [12]): 22
- No. of tumor/rat (Hras128 rats [5]; [12]): 14.0 ± 6.42

SMILES: Cn1c(N)nc2ncc(-c3ccccc3)cc21 [PhIP]
- Endogenous (rat) exon 1 mutations, number of tumors [3, 13]: 0
- Endogenous (rat) exon 2 mutations, number of tumors [3, 13]: 0
- No. of tumor-bearing rats [6]: 0(0)
- No. of tumor-bearing rats (%) [6]: 0(0) %
- No. of tumors/rat [6]: 0
- Tumor size (Hras128 rats [7]; Hras128, mammary carcinomas): 9.23 ± 6.21 mm
- No. of tumor-bearing rats (Hras128 rats [7]; [14]): 6
- No. of tumor-bearing rats (%) (Hras128 rats [7]; [14]): 100%
- No. of tumors/rat (Hras128 rats [7]; [14]): 9.67 ± 4.76^b
- Sensitivity of the Hras128 rat to PhIP (Hras128 rats [7]; mammary carcinogenesis): highly sensitive
- Transgene codon 12 mutations, % [4, 13]: 30%
- Transgene codon 61 mutations, % [4, 13]: 23.1%
- Transgene mutations total, number of tumors [4, 13]: 8
- Transgene codon 12 mutations, number of tumors [4, 15]: 6/20 and 6
- Transgene codon 61 mutations, number of tumors [4, 15]: 3/20 and 3
- Transgene mutations total, figure in parentheses ([4]; PhIP-induced mammary carcinomas, row printed 'Wild' (Hras128 per text), percent sign not given): 61.5

SMILES: C=C(C)[C@H]1CC=C(C)CC1 [d-Limonene, d-limonene]
- Average size of tumors (mm) (Hras128 rats [8]; basal diet control 10.7 ± 7.34, P < 0.01): 8.23 ± 4.88 ^a mm
- No. of tumors/rat (Hras128 rats [8]; basal diet control 26.4 ± 8.52): 19.4 ± 6.71
- Average size of tumors (mm^3) (Hras128 rats [8]; basal diet control 637.7 ± 1669, P < 0.01): 269.5 ± 735.5 ^a mm^3
